Patent publication EP4745137A1 (Gluetacs Therapeutics (Shanghai) Co., Ltd., priority 2023, dated 2025)

Columns and labels:
[1] = biological target: T1, human Cereblon WT GST-tagged protein (Homo sapiens, UniProt Q96SW2); assay: CRBN-binding affinity by HTRF (CEREBLON BINDING kit); conditions: HTRF inhibitory activity, CEREBLON BINDING kit; read-out: HTRF IC50
T1 construct: purchased CISBIO 64BDCRBNPEH

IKZF2 = biological target: T2, IKZF2 (Homo sapiens, UniProt Q96SW2+Q9UKS7); assay: Western-blot assay of substrate protein degradation in hPBMCs, IKZF2; assay type: cell-based; conditions: 24 hours of compound treatment, compounds tested at 50 nM and 500 nM (concentration of the table not stated)
T2 construct: endogenous in cells; host or cells: hPBMCs (Milecell Biotechnologies)
T2 sequence (Q9UKS7 whole entry): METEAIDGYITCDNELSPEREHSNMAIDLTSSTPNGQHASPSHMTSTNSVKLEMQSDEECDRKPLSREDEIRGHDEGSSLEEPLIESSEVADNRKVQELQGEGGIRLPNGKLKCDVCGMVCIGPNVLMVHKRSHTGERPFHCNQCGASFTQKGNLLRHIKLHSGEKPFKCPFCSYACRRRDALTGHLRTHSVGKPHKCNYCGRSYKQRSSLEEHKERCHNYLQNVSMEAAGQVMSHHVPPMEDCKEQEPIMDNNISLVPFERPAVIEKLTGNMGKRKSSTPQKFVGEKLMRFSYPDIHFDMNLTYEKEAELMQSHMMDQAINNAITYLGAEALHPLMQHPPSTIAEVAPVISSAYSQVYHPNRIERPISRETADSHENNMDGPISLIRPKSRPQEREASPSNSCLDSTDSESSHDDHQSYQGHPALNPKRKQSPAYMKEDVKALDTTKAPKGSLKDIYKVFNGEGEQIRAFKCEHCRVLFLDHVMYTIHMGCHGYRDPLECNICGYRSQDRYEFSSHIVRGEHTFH
T2 sequence (Q96SW2 whole entry): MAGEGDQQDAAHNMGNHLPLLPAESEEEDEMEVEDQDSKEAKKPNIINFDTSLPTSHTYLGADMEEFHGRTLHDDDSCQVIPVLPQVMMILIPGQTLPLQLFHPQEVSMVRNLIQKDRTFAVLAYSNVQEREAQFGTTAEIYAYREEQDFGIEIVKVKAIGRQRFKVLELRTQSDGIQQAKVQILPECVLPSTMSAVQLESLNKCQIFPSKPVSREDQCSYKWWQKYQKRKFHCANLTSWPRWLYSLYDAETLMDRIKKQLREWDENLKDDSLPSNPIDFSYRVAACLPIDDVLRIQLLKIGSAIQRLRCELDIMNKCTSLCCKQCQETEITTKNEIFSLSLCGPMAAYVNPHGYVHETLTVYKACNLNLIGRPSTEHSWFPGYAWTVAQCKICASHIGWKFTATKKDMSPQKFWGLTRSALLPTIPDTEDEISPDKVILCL
T2 sequence (Q16531 whole entry partner): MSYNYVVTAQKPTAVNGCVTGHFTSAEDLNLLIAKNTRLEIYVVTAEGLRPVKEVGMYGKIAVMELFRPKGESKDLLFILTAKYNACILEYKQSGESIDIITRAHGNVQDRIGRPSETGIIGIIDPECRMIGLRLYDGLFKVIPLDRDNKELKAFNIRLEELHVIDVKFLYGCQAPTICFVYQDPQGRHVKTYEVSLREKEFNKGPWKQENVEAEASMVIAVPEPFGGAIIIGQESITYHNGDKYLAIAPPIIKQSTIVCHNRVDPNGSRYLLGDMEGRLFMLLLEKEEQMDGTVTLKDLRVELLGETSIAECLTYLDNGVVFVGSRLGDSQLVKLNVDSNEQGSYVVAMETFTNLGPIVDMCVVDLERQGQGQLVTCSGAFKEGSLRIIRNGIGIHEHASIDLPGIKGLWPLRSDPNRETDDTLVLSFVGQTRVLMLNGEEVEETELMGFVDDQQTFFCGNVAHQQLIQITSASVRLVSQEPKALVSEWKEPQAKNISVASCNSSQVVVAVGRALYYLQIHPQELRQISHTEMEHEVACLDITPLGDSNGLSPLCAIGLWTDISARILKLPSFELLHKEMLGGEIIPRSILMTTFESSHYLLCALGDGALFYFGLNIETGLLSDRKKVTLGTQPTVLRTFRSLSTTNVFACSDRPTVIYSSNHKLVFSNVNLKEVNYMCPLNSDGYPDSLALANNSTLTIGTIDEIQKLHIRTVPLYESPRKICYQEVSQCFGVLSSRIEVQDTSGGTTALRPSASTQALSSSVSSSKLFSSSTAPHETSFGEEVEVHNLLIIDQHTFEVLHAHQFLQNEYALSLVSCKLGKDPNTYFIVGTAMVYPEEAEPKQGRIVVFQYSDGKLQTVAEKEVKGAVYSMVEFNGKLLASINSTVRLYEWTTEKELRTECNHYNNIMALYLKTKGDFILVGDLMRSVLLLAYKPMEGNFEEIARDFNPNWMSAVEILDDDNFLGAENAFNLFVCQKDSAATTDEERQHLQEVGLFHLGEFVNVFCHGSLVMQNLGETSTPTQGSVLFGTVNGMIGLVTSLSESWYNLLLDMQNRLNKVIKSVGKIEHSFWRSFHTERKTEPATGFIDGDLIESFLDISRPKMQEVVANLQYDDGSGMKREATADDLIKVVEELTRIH

IKZF1 = biological target: T3, IKZF1 (Homo sapiens, UniProt Q13422+Q96SW2); assay: Western-blot assay of substrate protein degradation in hPBMCs, IKZF1; assay type: cell-based; conditions: 24 hours of compound treatment, compounds tested at 50 nM and 500 nM (concentration of the table not stated)
T3 construct: endogenous in cells; host or cells: hPBMCs (Milecell Biotechnologies)
T3 sequence (Q13422 whole entry): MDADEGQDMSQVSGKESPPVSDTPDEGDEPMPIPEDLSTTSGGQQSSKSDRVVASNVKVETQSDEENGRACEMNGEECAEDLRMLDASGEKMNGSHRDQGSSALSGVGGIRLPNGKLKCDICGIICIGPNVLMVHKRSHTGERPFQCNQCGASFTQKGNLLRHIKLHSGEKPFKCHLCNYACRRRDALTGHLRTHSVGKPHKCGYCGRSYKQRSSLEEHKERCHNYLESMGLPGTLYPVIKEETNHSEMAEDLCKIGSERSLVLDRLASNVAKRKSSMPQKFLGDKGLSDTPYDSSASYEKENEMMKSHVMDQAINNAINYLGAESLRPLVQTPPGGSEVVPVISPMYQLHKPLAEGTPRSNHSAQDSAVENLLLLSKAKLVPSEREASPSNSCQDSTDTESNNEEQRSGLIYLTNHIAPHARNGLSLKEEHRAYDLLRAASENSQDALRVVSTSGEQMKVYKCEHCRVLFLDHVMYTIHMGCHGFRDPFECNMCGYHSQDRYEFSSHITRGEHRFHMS
T3 sequence (Q96SW2 whole entry): as the sequence (Q96SW2 whole entry) above
T3 sequence (Q16531 whole entry partner): as the sequence (Q16531 whole entry partner) above

WEE1 = biological target: T4, WEE1 (Homo sapiens, UniProt P30291+Q96SW2); assay: Western-blot assay of substrate protein degradation in hPBMCs, WEE1; assay type: cell-based; conditions: 24 hours of compound treatment, compounds tested at 50 nM and 500 nM (concentration of the table not stated)
T4 construct: endogenous in cells; host or cells: hPBMCs (Milecell Biotechnologies)
T4 sequence (P30291 whole entry): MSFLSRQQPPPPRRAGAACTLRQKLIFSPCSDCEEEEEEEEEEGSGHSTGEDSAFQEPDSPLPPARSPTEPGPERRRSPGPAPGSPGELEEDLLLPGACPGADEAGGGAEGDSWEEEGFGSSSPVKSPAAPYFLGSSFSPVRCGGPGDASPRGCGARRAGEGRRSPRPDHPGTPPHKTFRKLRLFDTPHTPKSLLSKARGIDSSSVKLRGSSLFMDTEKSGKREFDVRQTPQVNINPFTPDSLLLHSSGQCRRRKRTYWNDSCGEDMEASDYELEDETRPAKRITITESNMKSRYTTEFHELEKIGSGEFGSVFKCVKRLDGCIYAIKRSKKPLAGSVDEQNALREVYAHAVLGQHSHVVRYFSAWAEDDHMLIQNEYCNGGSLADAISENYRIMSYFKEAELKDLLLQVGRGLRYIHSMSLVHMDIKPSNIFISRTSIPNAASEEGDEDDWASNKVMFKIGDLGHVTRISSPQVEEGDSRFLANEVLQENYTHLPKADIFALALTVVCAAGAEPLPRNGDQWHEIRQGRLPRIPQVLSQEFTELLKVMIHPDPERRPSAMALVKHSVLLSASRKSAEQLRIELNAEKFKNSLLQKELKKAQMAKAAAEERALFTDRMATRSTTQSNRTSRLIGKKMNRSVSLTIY
T4 sequence (Q96SW2 whole entry): as the sequence (Q96SW2 whole entry) above
T4 sequence (Q16531 whole entry partner): as the sequence (Q16531 whole entry partner) above

GSPT1 = biological target: T5, GSPT1 (Homo sapiens, UniProt P15170+Q96SW2); assay: Western-blot assay of substrate protein degradation in hPBMCs, GSPT1; assay type: cell-based; conditions: 24 hours of compound treatment, compounds tested at 50 nM and 500 nM (concentration of the table not stated)
T5 construct: endogenous in cells; host or cells: hPBMCs (Milecell Biotechnologies)
T5 sequence (P15170 whole entry): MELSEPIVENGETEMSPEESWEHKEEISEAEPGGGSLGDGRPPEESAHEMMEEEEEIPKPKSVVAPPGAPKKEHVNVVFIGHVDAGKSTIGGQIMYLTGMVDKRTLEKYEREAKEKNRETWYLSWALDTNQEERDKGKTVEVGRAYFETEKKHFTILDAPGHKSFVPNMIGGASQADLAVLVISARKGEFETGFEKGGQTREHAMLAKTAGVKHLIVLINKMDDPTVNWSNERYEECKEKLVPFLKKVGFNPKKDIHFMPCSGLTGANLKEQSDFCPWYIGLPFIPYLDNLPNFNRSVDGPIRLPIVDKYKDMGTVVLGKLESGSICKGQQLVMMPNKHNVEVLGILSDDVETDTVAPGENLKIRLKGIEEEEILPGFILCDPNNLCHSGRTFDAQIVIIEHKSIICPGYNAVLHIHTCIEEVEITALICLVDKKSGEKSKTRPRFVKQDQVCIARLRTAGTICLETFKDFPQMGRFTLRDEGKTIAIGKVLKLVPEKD
T5 sequence (Q96SW2 whole entry): as the sequence (Q96SW2 whole entry) above
T5 sequence (Q16531 whole entry partner): as the sequence (Q16531 whole entry partner) above

CK1α = biological target: T6, CK1α (Homo sapiens, UniProt P48729+Q96SW2); assay: Western-blot assay of substrate protein degradation in hPBMCs, CK1α; assay type: cell-based; conditions: 24 hours of compound treatment, compounds tested at 50 nM and 500 nM (concentration of the table not stated)
T6 construct: endogenous in cells; host or cells: hPBMCs (Milecell Biotechnologies)
T6 sequence (P48729 whole entry): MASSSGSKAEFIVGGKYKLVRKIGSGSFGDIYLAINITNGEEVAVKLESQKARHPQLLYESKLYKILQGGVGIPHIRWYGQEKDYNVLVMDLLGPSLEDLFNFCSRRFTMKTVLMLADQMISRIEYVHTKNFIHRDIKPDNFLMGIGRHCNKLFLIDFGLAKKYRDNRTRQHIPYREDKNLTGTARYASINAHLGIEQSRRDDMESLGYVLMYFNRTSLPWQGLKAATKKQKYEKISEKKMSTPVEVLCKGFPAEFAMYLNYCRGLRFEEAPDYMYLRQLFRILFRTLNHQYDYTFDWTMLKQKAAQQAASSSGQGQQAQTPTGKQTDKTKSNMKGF
T6 sequence (Q96SW2 whole entry): as the sequence (Q96SW2 whole entry) above
T6 sequence (Q16531 whole entry partner): as the sequence (Q16531 whole entry partner) above

IKZF3 = biological target: T7, IKZF3 (Homo sapiens, UniProt Q96SW2+Q9UKT9); assay: Western-blot assay of substrate protein degradation in hPBMCs, IKZF3; assay type: cell-based; conditions: 24 hours of compound treatment, compounds tested at 50 nM and 500 nM (concentration of the table not stated)
T7 construct: endogenous in cells; host or cells: hPBMCs (Milecell Biotechnologies)

T1 sequence (Q96SW2 whole entry): as the sequence (Q96SW2 whole entry) above

Row | SMILES | IC50 [1] [nM] | IKZF2 substrate protein remaining % (IKZF2) | IKZF 1 substrate protein remaining % (IKZF1) | Weel substrate protein remaining % (WEE1) | GSPT1 substrate protein remaining % (GSPT1) | CK1a substrate protein remaining % (CK1α) | IKZF3 substrate protein remaining % (IKZF3)
1 | O=C1CCC(N2Cc3cc(CN4CCC(c5ccccc5C(F)(F)F)CC4)ccc3C2=O)C(=O)N1 (centres unmarked) [GT-04488, 3-(1-oxo-5-((4-(2-(trifluoromethyl)phenyl)piperidin-1-yl)methyl)isoindolin-2-yl)piperidine-2,6-dione] | 500 to 1000 | A (0% ≤ substrate protein remaining % ≤ 80%) | B (80%< substrate protein remaining %≤ 100%) | B (80%< substrate protein remaining %≤ 100%) | A (0% ≤ substrate protein remaining % ≤ 80%) | A (0% ≤ substrate protein remaining % ≤ 80%) | B (80%< substrate protein remaining %≤ 100%)
2 | Cc1cc(N2CCN(Cc3ccc4c(c3)CN(C3CCC(=O)NC3=O)C4=O)CC2)cc(C)n1 (centres unmarked) [GT-04492, 3-(5-((4-(2,6-dimethylpyridin-4-yl)piperazin-1-yl)methyl)-1-oxoisoindolin-2-yl)piperidine-2,6-dione] | 500 to 1000 | B (80%< substrate protein remaining %≤ 100%) | B (80%< substrate protein remaining %≤ 100%) | B (80%< substrate protein remaining %≤ 100%) | A (0% ≤ substrate protein remaining % ≤ 80%) | A (0% ≤ substrate protein remaining % ≤ 80%) | B (80%< substrate protein remaining %≤ 100%)
3 | O=C1CCC(N2Cc3cc(CN4CCN(c5c(F)c(F)nc(F)c5F)CC4)ccc3C2=O)C(=O)N1 (centres unmarked) [GT-04499, 3-(1-oxo-5-((4-(perfluoropyridin-4-yl)piperazin-1-yl)methyl)isoindolin-2-yl)piperidine-2,6-dione] | 500 to 1000 | A (0% ≤ substrate protein remaining % ≤ 80%) | A (0% ≤ substrate protein remaining % ≤ 80%) | A (0% ≤ substrate protein remaining % ≤ 80%) | A (0% ≤ substrate protein remaining % ≤ 80%) | A (0% ≤ substrate protein remaining % ≤ 80%) | A (0% ≤ substrate protein remaining % ≤ 80%)
4 | O=C1CCC(N2Cc3cc(CN4CCN(c5cc(Cl)nnc5Cl)CC4)ccc3C2=O)C(=O)N1 (centres unmarked) [GT-04500, 3-(5-((4-(3,6-dichloropyridazin-4-yl)piperazin-1-yl)methyl)-1-oxoisoindolin-2-yl)piperidine-2,6-dione] | 500 to 1000 | A (0% ≤ substrate protein remaining % ≤ 80%) | A (0% ≤ substrate protein remaining % ≤ 80%) | A (0% ≤ substrate protein remaining % ≤ 80%) | A (0% ≤ substrate protein remaining % ≤ 80%) | A (0% ≤ substrate protein remaining % ≤ 80%) | A (0% ≤ substrate protein remaining % ≤ 80%)
5 | O=C1CCC(N2Cc3cc(CN4CCN(c5ncnc(Cl)c5Cl)CC4)ccc3C2=O)C(=O)N1 (centres unmarked) [GT-04501, 3-(5-((4-(5,6-dichloropyrimidin-4-yl)piperazin-1-yl)methyl)-1-oxoisoindolin-2-yl)piperidine-2,6-dione] | < 500 | A (0% ≤ substrate protein remaining % ≤ 80%) | A (0% ≤ substrate protein remaining % ≤ 80%) | A (0% ≤ substrate protein remaining % ≤ 80%) | A (0% ≤ substrate protein remaining % ≤ 80%) | A (0% ≤ substrate protein remaining % ≤ 80%) | A (0% ≤ substrate protein remaining % ≤ 80%)
